Experimental data from EP4332093A1, “SALT CONTAINING PIPERAZINE POLYCYCLIC DERIVATIVE, CRYSTAL FORM THEREOF, PREPARATION METHOD THEREFOR, AND USE THEREOF” (Shanghai Hansoh Biomedical Co., Ltd., priority 2021, dated 2022).
Like-named read-outs stand apart in the source and are kept apart here.

Assays:
5-HT2A receptor [1] = target: T1, 5-HT2A receptor (Homo sapiens, UniProt P28223); assay: Radioligand binding assay, 5-HT2A receptor ([3H]-Ketanserin); parameters: purchased PerkinElmer; conditions: Human 5-HT2A Receptor membrane, [3H]-Ketanserin 2 nM; read-out: 5HT-2A Binding IC50
T1 sequence (P28223 whole entry): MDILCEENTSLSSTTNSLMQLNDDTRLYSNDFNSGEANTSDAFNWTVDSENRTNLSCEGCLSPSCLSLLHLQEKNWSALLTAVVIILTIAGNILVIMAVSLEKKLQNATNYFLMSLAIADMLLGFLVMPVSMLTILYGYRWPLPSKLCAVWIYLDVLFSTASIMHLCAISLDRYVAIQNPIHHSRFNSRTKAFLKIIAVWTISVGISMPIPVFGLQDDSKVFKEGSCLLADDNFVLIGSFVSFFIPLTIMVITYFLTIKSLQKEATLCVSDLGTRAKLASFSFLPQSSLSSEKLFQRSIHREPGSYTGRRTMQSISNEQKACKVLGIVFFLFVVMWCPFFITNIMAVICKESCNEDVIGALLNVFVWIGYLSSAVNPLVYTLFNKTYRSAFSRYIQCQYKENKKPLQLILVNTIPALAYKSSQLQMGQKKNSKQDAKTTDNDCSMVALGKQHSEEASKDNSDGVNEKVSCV
Procedure: Determination of the binding ability of the compounds of the
present invention to 5-HT2A receptor
The objective of this test example is to determine the affinity of the compounds for 5-HT2A receptor.
Experimental buffer: 50 mM Tris-HCl pH 7.4, 4 mM CaCl2; washing liquor: 50 mM Tris-HCl pH 7.4, stored at 4°C; 0.5% PEI solution: 0.5 g PEI dissolved in 100 mL ddH2O, 4°C storage of spare.
5 µL of the test compounds (0.005 nM to 100 nM, 10 concentrations in total) and 100 µL of buffer were added to a 96-well assay plate. 1.5 µL of cell membrane and 300 µL of buffer were added to each well, and the plate was shaken at 600 rpm for 5 minutes. 100 µL of a mixed solution of buffer and [^3H]-Ketanserin (final concentration of 2 nM) was added to the reaction system per well, and the plate was shaken at 600 rpm for 5 minutes and incubated at 27°C for 30 min. The […]-96 GF/B filter plate pre-incubated with 0.5% PEI for 1 h was washed twice with the buffer (1 mL/well). The cell membrane suspension was added to the […]-96 GF/B filter plate, washed 4 times, and incubated at 55°C for 10 min. 40 µL of ULTIMA GOLD was added to each well, and liquid scintillation counting was carried out.
(§1) The CPM (Counts per minute) values were determined by TopCount. […] The 10 concentrations of the compound were from 100 nM to 0.005 nM after 3-fold dilution of the reaction system. The percent inhibition rate and ten-point concentration data were fitted to the parametric nonlinear logistic equation by using GraphPad prism to calculate the IC50 values of the compound.

5-HT2A receptor [2] = target: T1, 5-HT2A receptor; assay: Calcium ion mobility in cells stably expressing 5-HT2A receptors (Flp-In-CHO-5HT2A, FLIPR); assay type: cell-based; parameters: expressed in transfected cells; conditions: Flp-In-CHO-5HT2A stable pool, 5HT stimulation
Procedure: Determination of the effect of the compounds of the present invention on calcium ion mobility in cells stably expressing 5-HT2A receptors
To determine the inhibitory effect of the compounds on 5-HT2A receptor.
• 1) Preparation of the buffer: 1 x HBSS, 20 mM HEPES, 2.5 mM probenecid (probenecid was 400 mM stock in 1 M NaOH), 0.1% BSA. Probenecid and BSA were added fresh on the day of the experiment. Experimental buffers include dye buffer and compound dilution buffer. • 2) Cell culture medium: Ham's F-12K + 10% fetal bovine serum + 600 µg/ml hygromycin B + 1* penicillin-streptomycin. Seeding medium: Ham's F-12K + 10% dialysis serum; Assay buffer: 1 x HBSS + 20 mM HEPES; Cell line: Flp-In-CHO-5HT2A stable pool. • 3) The cells were cultured in the complete medium at 37°C, 5% CO2 to 70%-90% confluency. The cells were digested with TrypLE, seeded to the 384-well assay plate at a density of 1 × 10^4 cells/well, and incubated for 16 to 24 hours (at least overnight). • 4) 20X Component A was thawed to room temperature, diluted to 2X working concentration (containing 5mM Probenecid) with the assay buffer, and placed at room temperature for later use. • 5) The cell culture plate was taken out and left to stand at room temperature for 10 min. […] 10 µl of diluted 5HT was add to each experimental well using FLIPR Tetra, and the values were read.
The calcium signal values were determined by FLIPR. The calculated output for each sampling time point in the experiment was the ratio of the 340/510 nm wavelength signals to 380/510 nm wavelength signals. The maximum minus minimum calculation was derived from the ratio signal curve. The percent inhibition rate and ten-point concentration data were fitted to the parametric nonlinear logistic equation by using GraphPad prism to calculate the IC50 values of the compound.

dopamine D3 receptor = target: T2, dopamine D3 receptor (Homo sapiens, UniProt P35462); assay: Radioligand binding assay, dopamine D3 receptor ([3H]-methylspiperone); conditions: Human Dopamine D3 Receptor membrane, [3H]-methylspiperone 0.5 nM
T2 construct: purchased PerkinElmer ES-173-M400UA
T2 sequence (P35462 whole entry): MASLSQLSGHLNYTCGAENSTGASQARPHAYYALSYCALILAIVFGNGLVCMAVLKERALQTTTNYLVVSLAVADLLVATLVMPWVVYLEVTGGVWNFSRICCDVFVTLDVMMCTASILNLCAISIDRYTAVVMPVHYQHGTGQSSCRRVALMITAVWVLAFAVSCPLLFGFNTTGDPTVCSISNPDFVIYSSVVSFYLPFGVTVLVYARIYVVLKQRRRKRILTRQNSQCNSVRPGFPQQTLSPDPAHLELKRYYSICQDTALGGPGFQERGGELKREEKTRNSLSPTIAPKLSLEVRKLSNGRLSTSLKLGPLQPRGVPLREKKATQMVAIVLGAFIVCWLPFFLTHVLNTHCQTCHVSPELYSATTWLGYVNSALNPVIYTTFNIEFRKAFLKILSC
Procedure: Determination of the binding ability of the compounds of the present invention to dopamine D3 receptor
The objective of this test example is to determine the affinity of the compounds for dopamine D3 receptor.
Experimental buffer: 50 mM Tris-HCl pH 7.4, 10 mm MgCl2; washing liquor: 50 mM Tris-HCl pH 7.4, stored at 4°C; 0.5% PEI solution: 0.5 g PEI dissolved in 100 mL ddH2O, 4°C storage of spare.
5 µL of the test compounds (0.005 nM to 100 nM, 10 concentrations in total) and 100 µL of buffer were added to a 96-well assay plate. 1 µL of cell membrane and 300 µL of buffer were added to each well, and the plate was shaken at 600 rpm for 5 minutes. 100 µL of a mixed solution of buffer and [^3H]-methylspiperone (final concentration of 0.5 nM) was added to the reaction system per well, and the plate was shaken at 600 rpm for 5 minutes and incubated at 27°C for 30 min. The UNIFII,TER-96 GF/B filter plate pre-incubated with 0.5% PEI for 1 h was washed twice with the buffer (1 mL/well). The cell membrane suspension was added to the […]-96 GF/B filter plate, washed 4 times, and incubated at 55°C for 10 min. 40 µL of ULTIMA GOLD was added to each well, and liquid scintillation counting was carried out.
as §1

D3 receptor = target: T3, D3 receptor (Homo sapiens, UniProt P35462); assay: cAMP content in cells stably expressing D3 receptors (CHO-D3, forskolin, HTRF); assay type: cell-based
T3 construct: expressed in transfected cells
T3 sequence (P35462 whole entry): as above
Procedure: Determination of the effect of the compounds of the present invention on cAMP content in cells stably expressing D3 receptors
To determine the activation effect of the compounds on D3 receptor.
• 1. Preparation of the buffer: 1* HBSS + 20mM HEPES + 0.1% BSA + 500 µM IBMX. Complete medium: Ham's F12K + 10% fetal bovine serum +1* penicillin-streptomycin + 400 µg/mL G418. • 2. CHO-D3 cells were cultured in the complete medium at 37°C, 5% CO2. After TrypLE digestion, the cells were resuspended in the experimental buffer, and seeded into a 384-well cell culture plate at a seeding density of 8000 cells per well. • 3. The experimental buffer (1*HBSS, 0.1% BSA, 20 mM HEPES and 500 µM IBMX) was prepared. The compound was diluted with the buffer. 2.5 µL of the compound solution was added to each well, and the plate was incubated at 37°C for 10 minutes. The forskolin was diluted to 8 µM (8*) with the experimental buffer. 2.5 µL of the diluted 8* forskolin was added, and the plate was incubated at 37°C for 30 minutes. cAMP-d2 and Anti-cAMP-Eu^3+ were thawed, and diluted by 20-fold with the lysis buffer. 10 µL of cAMP-d2 was added to the experimental well, followed by the addition of 10 µL of Anti-cAMP-Eu^3+. The reaction plate was centrifuged at 200 g for 30 s at room temperature, and left to stand at 25°C for 1 h. Data was collected using Envision.

[3] = Pharmacokinetic assay in Balb/c mice (plasma and brain tissue); assay type: in vivo; conditions: male, mouse, po, p.o. 5 mg/kg; for AUC(0-t): read-out: Area under curve AUC0-t; for AUC(0-inf): read-out: Area under curve AUC0-∞; for Tmax: read-out: Peak time tmax; for Cmax: read-out: Plasma concentration Cmax; for MRT: read-out: Average residence time MRT; for half-life: read-out: Half life t1/2 (converted)
Procedure: Balb/c mice were used as test animals. The pharmacokinetic behavior in mouse body (plasma and brain tissue) of the compounds of Examples of the present invention was studied at an oral administration dose of 5 mg/kg.
Compounds of the Examples of the present invention, prepared by the applicant.
Male Balb/c mice (12 mice per group), purchased from Shanghai Jiesijie Laboratory Animal Co., LTD, with Certificate No.: SCXK (Shanghai) 2013-0006 N0.311620400001794.
The test compound was dissolved in 0.5% CMC-Na (1% Tween80) by sonication to formulate a clear solution or homogeneous suspension.
After an overnight fast, male Balb/c mice (12 mice per group) were administered p.o. with the test compound at an administration dose of 5 mg/kg and an administration volume of 10 mL/kg.
0.2 mL of blood was taken from the heart of the mouse before administration and at 1, 2, 4, 8 and 24 hours after administration, and the mice were sacrificed with CO2. The samples were stored in EDTA-K2 tubes, and centrifuged for 6 minutes at 4°C, 6000 rpm to separate the plasma. The plasma samples were stored at -80°C. Whole brain tissue was taken out, weighed, placed in a 2 mL centrifuge tube, and stored at -80°C.
• 1) 160 µL of acetonitrile was added to 40 µL of the plasma sample for precipitation, and then the mixture was centrifuged for 5 to 20 minutes at 3500 × g. • 2) 90 µL of acetonitrile containing internal standard (100 ng/mL) was added to 30 µL of the plasma and brain homogenate sample for precipitation, and then the mixture was centrifuged for 8 minutes at 13000 rpm. • 3) 70 µL of water was added to 70 µL of the treated supernatant and mixed by vortex for 10 minutes. 20 µL of the supernatant was taken to analyze the concentration of the test compound by LC/MS/MS. LC/MS/MS analytical instrument: AB Sciex API 4000 Qtrap.
• Liquid chromatography condition: Shimadzu LC-20AD pump • Chromatographic column: Agilent ZORBAX XDB-C18 (50×2.1 mm, 3.5 µm); Mobile phase: Eluent A was 0.1% formic acid in water, and Eluent B was acetonitrile • Flow rate: 0.4 mL/min • Elution time: 0-4.0 minutes, the eluent is as follows:
The main parameters of pharmacokinetics were calculated by WinNonlin 6.1. Table 17: Experimental results of pharmacokinetic assay in mice

| SMILES | IC50 (5-HT2A receptor [1]) [nM] | IC50 (5-HT2A receptor [2]) [nM] | IC50 (dopamine D3 receptor) [nM] | EC50 (D3 receptor) [nM] | AUC(0-t) ([3]; Brain) [ng·h/mL] | AUC(0-inf) ([3]; Brain) [ng·h/mL] | Tmax ([3]; Brain) [h] | Cmax ([3]; Brain) [ng/mL] | AUC(0-t) ([3]; Plasma) [ng·h/mL] | AUC(0-inf) ([3]; Plasma) [ng·h/mL] | MRT ([3]; Plasma) [h] | half-life ([3]; Plasma) [h] | Tmax ([3]; Plasma) [h] | Cmax ([3]; Plasma) [ng/mL] |
| --- | --- | --- | --- | --- | --- | --- | --- | --- | --- | --- | --- | --- | --- | --- |
| O=C(N[C@H]1C[C@H](CCN2CCN(c3cccc(Cl)c3Cl)CC2)C1)c1ccno1 [Example 15A, N-(Trans-3-(2-(4-(2,3-dichlorophenyl)piperazin-1-yl)ethyl)cyclobutyl)isoxazole-5-ca rboxamide] | 0.98 | 3.14 | 0.31 | 0.7 |  |  |  |  |  |  |  |  |  |  |
| CCN(C)C(=O)NC1CC(CCN2CCN(c3cccc4sccc34)CC2)C1 (centres unmarked) [Example 24, 3-(3-(2-(4-(Benzo[b]thiophen-4-yl)piperazin-1-yl)ethyl)cyclobutyl)-1-ethyl-1-methy lurea] | 6.39 |  | 1.13 | 0.9 | 2190 | 2310 | 1 | 339 | 1480 | 2000 | 5.7 | 3.4 | 0.5 | 369 |
| Cc1ncc(C(=O)NC2CC(CCN3CCN(c4cccc(Cl)c4Cl)CC3)C2)o1 (centres unmarked) [Example 16A] | 1.8 | 4.28 | 0.33 | 1.7 |  |  |  |  |  |  |  |  |  |  |
| CC(C)(O)C(=O)NC1CC(CCN2CCN(c3cccc(Cl)c3Cl)CC2)C1 (centres unmarked) [Example 4A] | 41.5 | 39 | 0.95 | 0.4 |  |  |  |  |  |  |  |  |  |  |
| CN(C(=O)NC1CC(CCN2CCN(c3cccc(Cl)c3Cl)CC2)C1)C1CC1 (centres unmarked) [Example 20, 1-Cyclopropyl-3-(3-(2-(4-(2,3-dichlorophenyl)piperazin-1-yl)ethyl)cyclobutyl)-1-me thylurea] | 19.1 | 11.6 | 1.99 | 1 |  |  |  |  |  |  |  |  |  |  |
| O=C(NC1CC(CCN2CCCN(c3cccc(Cl)c3Cl)CC2)C1)c1ccco1 (centres unmarked) [Example 25, N-(3-(2-(4-(2,3-Dichlorophenyl)-1,4-diazepan-1-yl)ethyl)cyclobutyl)furan-2-carbox amide] | 6.35 |  | 0.79 |  | 1540 | 1650 | 1 | 162 | 240 | 297 | 5.1 | 3.25 | 1 | 49.7 |
| O=C(N[C@H]1C[C@@H](CCN2CCN(c3cccc(Cl)c3Cl)CC2)C1)C1(O)CC1 [Example 6B, N-(Cis-3-(2-(4-(2,3-dichlorophenyl)piperazin-1-yl)ethyl)cyclobutyl)-1-hydroxycyclo propane-1-carboxamide] | 48.4 | 39 | 4.37 |  | 900 |  | 1 | 361 | 2250 | 2320 | 2.3 | 1.6 | 0.5 | 961 |
| C[C@@H]1CN(CCC2CC(NC(=O)C(C)(C)O)C2)CCN1c1cccc(Cl)c1Cl (stereo partly drawn) [Example 22, (R)-N-(3-(2-(4-(2,3-Dichlorophenyl)-3-methylpiperazin-1-yl)ethyl)cyclobutyl)-2-hy droxy-2-methylpropanamide] | 9.63 |  | 2.78 | 0.4 |  |  |  |  |  |  |  |  |  |  |
